ChEMBL document CHEMBL1201862, “PubChem BioAssay data set” (2004)
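Cells were grown in 96-well plates and exposed to each compound for 48 hours at five concentrations; endpoints were interpolated linearly between bracketing concentrations, or set to the highest concentration if not reached. GI50 is the concentration that inhibits growth by half.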 Active and inactive are the calls of the source. Cut-off read from the data, not from the text of the source: active = GI50 up to about 1.1 µM and inactive = higher.

Experiments:
Test in all cases: NCI-60 cell line screen, 48 h
786-0 = test system: 786-0
A498 = test system: A498
A549 = test system: A549
ACHN = test system: ACHN
CAKI-1 = test system: CAKI-1
CCRF-CEM = test system: CCRF-CEM
DLD-1 = test system: DLD-1
DMS-114 = test system: DMS-114
DMS-273 = test system: DMS-273
EKVX = test system: EKVX
HCC 2998 = test system: HCC 2998
HCT-116 = test system: HCT-116
HCT-15 = test system: HCT-15
HL-60 = test system: HL-60
HOP-18 = test system: HOP-18
HOP-62 = test system: HOP-62
HOP-92 = test system: HOP-92
HT-29 = test system: HT-29
IGROV-1 = test system: IGROV-1
K562 = test system: K562
KM-20L2 = test system: KM-20L2
KM12 = test system: KM12
LOX IMVI = test system: LOX IMVI
LXFL 529 = test system: LXFL 529
M14 = test system: M14
M19-MEL = test system: M19-MEL
MOLT-4 = test system: MOLT-4
Malme-3M = test system: Malme-3M
NCI-H226 = test system: NCI-H226
NCI-H23 = test system: NCI-H23
NCI-H460 = test system: NCI-H460
NCI-H522 = test system: NCI-H522
OVCAR-4 = test system: OVCAR-4
OVCAR-5 = test system: OVCAR-5
OVCAR-8 = test system: OVCAR-8
RPMI-8226 = test system: RPMI-8226
RXF 393 = test system: RXF 393
RXF 631 = test system: RXF 631
SF-268 = test system: SF-268
SF-295 = test system: SF-295
SF-539 = test system: SF-539
SK-MEL-28 = test system: SK-MEL-28
SK-MEL-2 = test system: SK-MEL-2
SK-MEL-5 = test system: SK-MEL-5
SK-OV-3 = test system: SK-OV-3
SN12C = test system: SN12C
SNB-19 = test system: SNB-19
SNB-75 = test system: SNB-75
SNB-78 = test system: SNB-78
SR = test system: SR
SW-620 = test system: SW-620
TK-10 = test system: TK-10
U-251 = test system: U-251
UACC-257 = test system: UACC-257
UACC-62 = test system: UACC-62
UO-31 = test system: UO-31
COLO 205 = test system: COLO 205
OVCAR-3 = test system: OVCAR-3
XF498 = test system: XF498

Measured: GI50

C1CCN(c2nsc(N3CCCCC3)n2)CC1
> 100 µM: HCT-15
inactive: 786-0 > 100 µM | A498 > 100 µM | A549 > 100 µM | ACHN > 100 µM | CAKI-1 > 100 µM | CCRF-CEM > 100 µM | DLD-1 > 100 µM | DMS-114 > 100 µM | DMS-273 > 100 µM | EKVX > 100 µM | HCC 2998 > 100 µM | HCT-116 > 100 µM | HL-60 92 µM | HOP-18 > 100 µM | HOP-62 > 100 µM | HOP-92 97.1 µM | HT-29 > 100 µM | IGROV-1 > 100 µM | K562 > 100 µM | KM-20L2 > 100 µM | KM12 > 100 µM | LOX IMVI > 100 µM | LXFL 529 > 100 µM | M14 > 100 µM | M19-MEL > 100 µM | MOLT-4 > 100 µM | Malme-3M > 100 µM | NCI-H226 > 100 µM | NCI-H23 > 100 µM | NCI-H460 > 100 µM | NCI-H522 > 100 µM | OVCAR-4 > 100 µM | OVCAR-5 > 100 µM | OVCAR-8 > 100 µM | RPMI-8226 87.3 µM | RXF 393 > 100 µM | RXF 631 > 100 µM | SF-268 > 100 µM | SF-295 > 100 µM | SF-539 > 100 µM | SK-MEL-28 > 100 µM | SK-MEL-2 > 100 µM | SK-MEL-5 > 100 µM | SK-OV-3 > 100 µM | SN12C > 100 µM | SNB-19 > 100 µM | SNB-75 > 100 µM | SNB-78 > 100 µM | SR > 100 µM | SW-620 > 100 µM | TK-10 > 100 µM | U-251 > 100 µM | UACC-257 > 100 µM | UACC-62 > 100 µM | UO-31 > 100 µM

O=C(Nc1c(-c2nc3ccccc3[nH]2)sc(=S)n1-c1ccccc1)c1ccccc1
> 100 µM: HCT-15
inactive: 786-0 91.2 µM | A498 > 100 µM | A549 > 100 µM | ACHN > 100 µM | CAKI-1 > 100 µM | CCRF-CEM > 100 µM | COLO 205 > 100 µM | DLD-1 > 100 µM | DMS-114 98.9 µM | DMS-273 91.8 µM | EKVX > 100 µM | HCC 2998 > 100 µM | HL-60 > 100 µM | HOP-18 > 100 µM | HOP-62 56.1 µM | HT-29 > 100 µM | IGROV-1 > 100 µM | K562 > 100 µM | KM12 > 100 µM | LOX IMVI 97.1 µM | LXFL 529 58.9 µM | M14 > 100 µM | M19-MEL > 100 µM | MOLT-4 > 100 µM | Malme-3M > 100 µM | NCI-H226 24.5 µM | NCI-H23 > 100 µM | NCI-H522 > 100 µM | OVCAR-3 96.8 µM | OVCAR-4 > 10 µM | OVCAR-5 > 100 µM | OVCAR-8 88.9 µM | RPMI-8226 > 100 µM | RXF 393 > 100 µM | RXF 631 > 100 µM | SF-268 > 100 µM | SF-295 97.5 µM | SF-539 48.8 µM | SK-MEL-28 > 100 µM | SK-MEL-2 > 100 µM | SK-MEL-5 > 100 µM | SK-OV-3 > 100 µM | SN12C 74 µM | SNB-19 82 µM | SNB-75 29.4 µM | SNB-78 61.7 µM | SW-620 > 100 µM | TK-10 > 100 µM | U-251 > 100 µM | UACC-257 > 100 µM | UACC-62 > 100 µM | UO-31 > 100 µM

CC1=NN(C(=O)c2cc(Cl)cc([N+](=O)[O-])c2)C(=O)C1/N=N/c1ccccc1C(=O)O (stereo unspecified)
inactive: 786-0 > 100 µM | A498 > 100 µM | A549 > 100 µM | ACHN > 100 µM | CAKI-1 > 100 µM | CCRF-CEM > 100 µM | COLO 205 > 100 µM | DLD-1 > 100 µM | DMS-273 > 100 µM | EKVX > 100 µM | HCC 2998 > 100 µM | HCT-116 > 100 µM | HL-60 > 100 µM | HOP-18 > 100 µM | HT-29 > 100 µM | IGROV-1 > 100 µM | K562 > 100 µM | KM12 > 100 µM | LXFL 529 > 100 µM | M19-MEL > 100 µM | MOLT-4 > 100 µM | Malme-3M > 100 µM | NCI-H226 > 100 µM | NCI-H23 > 100 µM | NCI-H460 > 100 µM | NCI-H522 36.6 µM | OVCAR-3 > 100 µM | OVCAR-5 > 100 µM | OVCAR-8 > 100 µM | RPMI-8226 > 100 µM | RXF 393 > 100 µM | RXF 631 > 100 µM | SF-268 > 100 µM | SF-295 > 100 µM | SF-539 > 100 µM | SK-MEL-28 > 100 µM | SK-MEL-2 > 100 µM | SK-MEL-5 > 100 µM | SK-OV-3 > 100 µM | SN12C > 100 µM | SNB-19 > 100 µM | SNB-75 75.2 µM | SNB-78 > 100 µM | SR > 100 µM | SW-620 > 100 µM | TK-10 > 100 µM | U-251 > 100 µM | UACC-257 > 100 µM | UACC-62 69.5 µM | UO-31 > 100 µM

O=NN(CCCl)C(=O)NCc1ccc[n+]([O-])c1
> 100 µM: HCT-15
inactive: 786-0 35.7 µM | A549 93.8 µM | ACHN > 100 µM | CAKI-1 > 100 µM | CCRF-CEM 65.8 µM | COLO 205 > 100 µM | DLD-1 > 100 µM | DMS-114 > 100 µM | EKVX > 100 µM | HCC 2998 > 100 µM | HCT-116 > 100 µM | HL-60 76.4 µM | HOP-62 54 µM | HOP-92 15.8 µM | HT-29 > 100 µM | IGROV-1 > 100 µM | K562 > 100 µM | KM-20L2 > 100 µM | KM12 > 100 µM | LOX IMVI 70.6 µM | LXFL 529 > 100 µM | M14 > 100 µM | M19-MEL > 100 µM | MOLT-4 60.8 µM | Malme-3M > 100 µM | NCI-H226 > 100 µM | NCI-H23 > 100 µM | NCI-H460 45.7 µM | OVCAR-3 > 100 µM | OVCAR-4 > 100 µM | OVCAR-5 > 100 µM | OVCAR-8 > 100 µM | RPMI-8226 > 100 µM | RXF 393 > 100 µM | RXF 631 > 100 µM | SF-268 37.2 µM | SF-295 64.1 µM | SF-539 43.9 µM | SK-MEL-28 > 100 µM | SK-MEL-2 > 100 µM | SK-MEL-5 > 100 µM | SK-OV-3 > 100 µM | SN12C > 100 µM | SNB-78 > 100 µM | SR 33 µM | SW-620 > 100 µM | TK-10 > 100 µM | U-251 43.2 µM | UACC-257 > 100 µM | UACC-62 11.7 µM | XF498 > 100 µM
